Reference: patent US20090252814A1, “USE OF XENON FOR ORGAN PROTECTION” (priority 2005, published 2009)

Tested on: HIF-1α
Assay: HIF-1α expression in neonatal rat brain after xenon (immunohistochemistry and western blot)
Assay type: in vivo, Sprague Dawley rats
Method: Studies were performed on Sprague Dawley, 7 day old rats. All procedures were approved by the Home Office.
The rats were exposed to 75% xenon for two hours. The xenon gas was administered to the rats by inhalation. The brains of said rats were then harvested, as described below, between 0-24 hours after exposure to the xenon gas.
Paraffin sections (4 μm) were dewaxed in xylene, rehydrated in a series of ethanol washes, and placed in distilled water before staining procedures. Slides were coated with 3-aminopropyl-tri-ethoxysylane.
For detection of HIF isoforms, monoclonal mouse anti-human HIF-1α antibody (67; Novus Biologicals, Littleton, Colo.) and polyclonal rabbit anti-mouse HIF-2α antibodies (PM8 and PM9, obtained from two different rabbits immunised with a peptide containing amino acids 337 to 439 of mouse HIF-2) were used. PM8 and PM9 were provided by Prof. P H Maxwell, Renal Section, Imperial College London, Hammersmith Campus, Du Cane Road, London, W12 ONN. Specific staining of each HIF-isoform was confirmed in immunoblots by using in vitro transcribed and translated mouse HIF-1 and HIF-2 (TnT T7; Promega, Madison, Wis.) and homogenates of rat endothelial cells.
For immunohistochemical analyses, antibody 67 was used at a dilution of 1:6000 and antibodies PM8 and PM9 were used at dilutions of 1:3000.
Detection of bound antibodies was performed by using biotinylated secondary anti-mouse or anti-rabbit antibodies and a catalysed signal amplification system (Dako, Hamburg, Germany) based on the streptavidin-biotin-peroxidase reaction, according to the instructions provided by the manufacturer. Antigen retrieval was performed for 90 seconds in preheated Dako target retrieval solution, using a pressure cooker. All incubations were performed in a humidified chamber. Between incubations, specimens were washed two to four times in buffer (50 mM Tris-HCl, 300 mM NaCl, 0.1% Tween-20, pH 7.6). […]

[Xe] [xenon]
expression of HIF-1α and HIF-1β in pyramidal cells in the hippocampus (6 hours after exposure to 75% xenon, immunohistochemistry): induces expression | HIF-1α positive cells in cortex (6 hrs after 2 h exposure to 75% xenon, immunohistochemistry): clearly detected | HIF-1α expression in the brain (7 day old rats, 75% xenon 2 h, brains harvested 0-24 h after, western blot): time-dependent increase
